Experimental data reported in article PMC8086025, “A benzopyran with antiarrhythmic activity is an inhibitor of Kir3.1-containing potassium channels” (The Journal of Biological Chemistry, 2021).
pIC50, pKi: −log10 of the molar value. Several values for one entry are separate records, joined by “and”; a condition that tells them apart may be missing. Equal entries are not always repeated.

How the values were obtained:
[1] = biological target: T1, Kir3.4/4(S143F) channel mutant (Homo sapiens, UniProt P48544, S143F); assay: TEVC in Xenopus oocytes, Kir3.4/4(S143F); assay type: cell-based; settings: read-out: IC50, inhibition of Kir3.4/4(S143F)
T1 construct: expressed in transfected cells; host or cells: Xenopus laevis oocytes (cRNA injection)

Kir3.4/4(S143F, N179D) = biological target: T2, Kir3.4/4(S143F, N179D) (Homo sapiens, UniProt P48544, N179D/S143F); assay: TEVC in Xenopus oocytes, Kir3.4/4(S143F, N179D); assay type: cell-based; settings: read-out: less inhibition of Kir3.4/4(S143F, N179D) than of Kir3.4/4(S143F)
T2 construct: expressed in transfected cells; host or cells: Xenopus laevis oocytes (cRNA injection)
Method: (§1) X. laevis oocytes were isolated and microinjected as previously described ([6]). Human Kir3.1, mouse Kir3.2, and human Kir3.4 DNA constructs were used for electrophysiology experiments. All cRNA constructs were injected in the amount of 2 ng per oocyte. Injected oocytes were incubated for 2 to 3 days at 18 °C to allow for expression. Whole-cell oocyte currents were then measured using a GeneClamp 500 amplifier (Axon Instruments). Microelectrodes had resistances of 0.5 to 1 megohm using a 3M KCl solution in 1.4% agarose. Oocytes were perfused with a low K^+ (LK) solution ND96 (2 mM KCl, 96 mM NaCl, 1 mM MgCl2, 1.8 mM CaCl2, 5 mM HEPES-Na) to establish a baseline for the recordings. Basal current was measured in a high potassium (HK) solution ND96K (96 mM KCl, 10 mM HEPES-K, 1 mM MgCl2, 1.8 mM CaCl2). To block the current, the oocyte chamber was perfused with 4 mM BaCl2 in ND96K. Only the Barium-sensitive current was used for statistical analysis. To measure the inhibitory activity of the channels, 1 μM BP-G1 in ND96K (HK) was used. Typically, oocytes were held at 0 mV (EK) and the current was monitored constantly using a ramp protocol with a command potential from −80 to +80 mV. Current amplitude was measured at the end of a 1 s sweep. All currents were analyzed when they reached steady state. Error bars in the figures represent SD (N > 4).

[2] = biological target: T3, Kir3.4/4(S143F) with E147A in the Kir3.4(S143F) subunit (Homo sapiens, UniProt P48544, E147A/S143F); assay: TEVC in Xenopus oocytes, E147A mutant in the Kir3.4(S143F) subunit; assay type: cell-based; settings: 1 μM
T3 construct: expressed in transfected cells; host or cells: Xenopus laevis oocytes (cRNA injection)
Method: as §1

Kir2.1 = biological target: T4, Kir2.1 (Homo sapiens, UniProt P63252); assay: Cloned cardiac ion channel manual patch clamp, Kir2.1; assay type: cell-based; settings: MPC (manual patch clamp)
T4 construct: host or cells: HEK293

α1 adrenergic receptor = assay: Radioligand binding, [3H]prazosin; design: species or system rat
Histamine H2 = biological target: T5, Histamine H2 (Homo sapiens, UniProt P25021); assay: Radioligand binding, [125I]APT; settings: read-out: % Specific Binding at 10 µM
T5 construct: expressed in transfected cells; host or cells: CHO cells

Ca = assay: Radioligand binding; settings: listed as Benzopyran-G1
Kir3.1/2 channel = biological target: T6, Kir3.1/2 channel (UniProt P48542+P48549); assay: TEVC in Xenopus oocytes, Kir3.1/2; assay type: cell-based, human Kir3.1, mouse Kir3.2; design: expressed in transfected cells; settings: TEVC oocyte experiments; read-out: IC50, inhibition of Kir3.1/2
T6 sequence (P48549 1-501): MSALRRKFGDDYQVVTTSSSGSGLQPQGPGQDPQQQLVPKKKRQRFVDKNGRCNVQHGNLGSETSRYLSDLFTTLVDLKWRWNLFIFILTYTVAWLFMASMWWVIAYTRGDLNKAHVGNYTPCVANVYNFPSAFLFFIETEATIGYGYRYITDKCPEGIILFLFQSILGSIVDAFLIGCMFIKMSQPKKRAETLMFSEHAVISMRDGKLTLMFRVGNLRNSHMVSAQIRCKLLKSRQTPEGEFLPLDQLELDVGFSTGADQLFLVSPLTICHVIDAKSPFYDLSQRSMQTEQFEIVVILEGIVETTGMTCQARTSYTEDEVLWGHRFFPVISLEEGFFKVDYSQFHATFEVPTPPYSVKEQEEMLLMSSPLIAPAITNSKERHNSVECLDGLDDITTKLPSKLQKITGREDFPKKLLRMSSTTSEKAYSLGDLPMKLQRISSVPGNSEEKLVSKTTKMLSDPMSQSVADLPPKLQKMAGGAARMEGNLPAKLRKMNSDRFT
T6 sequence (P48542 1-425): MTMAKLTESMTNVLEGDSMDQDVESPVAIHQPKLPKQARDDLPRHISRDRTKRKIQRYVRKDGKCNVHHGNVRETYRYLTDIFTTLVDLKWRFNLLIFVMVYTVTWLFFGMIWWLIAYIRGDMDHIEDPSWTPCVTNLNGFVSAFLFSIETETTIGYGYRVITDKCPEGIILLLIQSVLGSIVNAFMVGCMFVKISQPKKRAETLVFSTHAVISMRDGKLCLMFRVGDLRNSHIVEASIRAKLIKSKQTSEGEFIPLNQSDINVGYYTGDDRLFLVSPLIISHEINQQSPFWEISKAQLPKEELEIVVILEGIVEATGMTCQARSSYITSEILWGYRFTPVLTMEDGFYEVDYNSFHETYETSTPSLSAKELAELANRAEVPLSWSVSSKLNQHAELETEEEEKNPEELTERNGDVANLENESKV
Method: as §1

Kir3.1/4 channel = biological target: T7, Kir3.1/4 channel (Homo sapiens, UniProt P48544+P48549); assay: TEVC in Xenopus oocytes, Kir3.1/4; assay type: cell-based; design: expressed in transfected cells; host or cells: Xenopus laevis oocytes (cRNA injection)
T7 sequence (P48549 1-501): T6 sequence (P48549 1-501)
T7 sequence (P48544 1-419): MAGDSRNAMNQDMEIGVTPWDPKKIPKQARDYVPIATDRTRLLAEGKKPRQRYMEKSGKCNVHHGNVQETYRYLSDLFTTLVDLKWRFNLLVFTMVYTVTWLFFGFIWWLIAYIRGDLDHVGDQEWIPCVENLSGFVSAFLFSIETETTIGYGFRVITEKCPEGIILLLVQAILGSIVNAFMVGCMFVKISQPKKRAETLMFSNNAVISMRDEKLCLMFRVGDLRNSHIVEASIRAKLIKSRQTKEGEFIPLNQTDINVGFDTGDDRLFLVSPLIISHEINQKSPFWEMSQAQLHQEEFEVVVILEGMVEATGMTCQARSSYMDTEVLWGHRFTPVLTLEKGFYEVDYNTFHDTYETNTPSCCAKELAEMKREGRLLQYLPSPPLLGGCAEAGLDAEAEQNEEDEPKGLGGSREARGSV
Method: as §1

T5 sequence (P25021 whole entry): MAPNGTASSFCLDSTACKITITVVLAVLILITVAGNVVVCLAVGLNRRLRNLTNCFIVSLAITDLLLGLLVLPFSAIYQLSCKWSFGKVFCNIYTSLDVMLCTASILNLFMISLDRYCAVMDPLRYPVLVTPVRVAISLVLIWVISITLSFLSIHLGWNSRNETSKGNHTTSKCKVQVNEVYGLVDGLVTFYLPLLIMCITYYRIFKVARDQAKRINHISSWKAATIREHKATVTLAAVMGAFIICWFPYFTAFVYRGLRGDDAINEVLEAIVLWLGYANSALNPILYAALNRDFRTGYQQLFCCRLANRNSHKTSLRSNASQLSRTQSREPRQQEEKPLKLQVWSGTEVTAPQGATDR
T3 sequence (P48544 whole entry S143F/E147A, one chain of several): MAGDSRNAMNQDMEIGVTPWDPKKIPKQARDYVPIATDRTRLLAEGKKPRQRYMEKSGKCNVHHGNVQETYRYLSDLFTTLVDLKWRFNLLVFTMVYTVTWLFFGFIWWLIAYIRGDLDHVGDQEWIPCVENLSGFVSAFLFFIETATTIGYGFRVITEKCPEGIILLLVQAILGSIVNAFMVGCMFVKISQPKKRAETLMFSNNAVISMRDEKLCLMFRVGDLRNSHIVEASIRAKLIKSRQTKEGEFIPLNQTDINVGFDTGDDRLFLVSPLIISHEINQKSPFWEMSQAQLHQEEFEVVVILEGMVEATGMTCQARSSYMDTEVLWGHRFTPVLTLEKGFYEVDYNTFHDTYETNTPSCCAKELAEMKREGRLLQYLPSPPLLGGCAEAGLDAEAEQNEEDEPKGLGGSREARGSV
T2 sequence (P48544 whole entry S143F/N179D, one chain of several): as the sequence (P48544 whole entry S143F/E147A, one chain of several) above, with A147E, N179D counted along it
T4 sequence (P63252 whole entry): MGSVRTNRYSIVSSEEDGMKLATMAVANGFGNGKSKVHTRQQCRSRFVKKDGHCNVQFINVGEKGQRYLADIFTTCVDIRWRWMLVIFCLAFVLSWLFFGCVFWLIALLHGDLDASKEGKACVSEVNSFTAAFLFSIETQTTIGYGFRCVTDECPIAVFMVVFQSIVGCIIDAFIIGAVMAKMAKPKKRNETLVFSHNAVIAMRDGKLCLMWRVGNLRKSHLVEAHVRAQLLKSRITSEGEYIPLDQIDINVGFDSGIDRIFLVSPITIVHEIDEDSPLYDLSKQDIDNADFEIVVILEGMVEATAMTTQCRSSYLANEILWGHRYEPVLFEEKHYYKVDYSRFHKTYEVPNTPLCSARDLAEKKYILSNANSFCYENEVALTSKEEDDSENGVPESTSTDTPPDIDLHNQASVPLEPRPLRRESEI
T1 sequence (P48544 whole entry S143F, one chain of several): as the sequence (P48544 whole entry S143F/E147A, one chain of several) above, with A147E counted along it

Cc1cc(CO)nc2cc3c(cc12)OC(C)(C)[C@H](O)[C@H]3NCCc1ccccc1 [BP-G1, (3R,4S)-7-(hydroxymethyl)-2,2,9-trimethyl-4-(2-phenylethylamino)-3,4-dihydropyrano[2,3-g]quinolin-3-ol]
pIC50 [1]: 7.21 | inhibition at 1 µM (Kir3.4/4(S143F, N179D)): 20% | block of Kir3.4/4(S143F) carrying E147A [2]: abolished block | pIC50 (Kir2.1): < 5.00 | pIC50 (α1 adrenergic receptor): 4.89 | % Specific Binding at 10 µM (α1 adrenergic receptor): 55.6% | % Specific Binding at 10 µM (α1 adrenergic receptor; listed as Benzopyran-G1): 55.567% | pKi (α1 adrenergic receptor; read-out: Ki, α1 (non-selective)): 5.46 | inhibition at 10 µM (Histamine H2): 35.5% | % Specific Binding at 10 µM (Ca): 42.600% and < 50% | pIC50 (Kir3.1/2 channel): 7.25 and 7.26 | current block, wild-type Kir3.1/4 (Kir3.1/4 channel; 1 μM, TEVC): 75 to 80% | pIC50 (Kir3.1/4 channel; TEVC oocyte experiments, read-out: IC50, inhibition of Kir3.1/4): 7.26 and 7.25
